The term IC50 denotes the point on the concentration scale where inhibition reaches its midpoint.

For experiment [1], the target named is recombinant human HDAC6 (Homo sapiens (Human), UniProt Q9UBN7). Kind of experiment: Enzymatic screening, HDAC6 inhibition (fluorogenic FdL_G substrate). The format is biochemical. In outline: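 Enzyme was preincubated with compound (8 doses, triplicate, 1% DMSO) in 25 mM Tris-HCl pH 8, 130 mM NaCl, 0.05% Tween-20, 10% glycerol, with BSA. A FLUOR DE LYS-Green substrate was then added, and fluorescence was read after developer plus 2 μM TSA.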

Experiment [2] concerns the target recombinant human HDAC1 (Homo sapiens (Human), UniProt Q13547). Kind of experiment: Enzymatic screening, HDAC1 inhibition (fluorogenic FdL_G substrate). The format is biochemical. In outline: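 Recombinant human HDAC1 inhibition was measured fluorometrically using the FLUOR DE LYS-Green (FdL_G) substrate. Compounds at 8 doses (1% DMSO final) in Tris-HCl pH 8 buffer with NaCl, Tween-20 and glycerol were preincubated in triplicate with enzyme and 1 mg/mL BSA, then given substrate. Developer I plus 2 μM TSA was added, and fluorescence read after 25 minutes in the dark.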

recombinant human HDAC1, sequence (Q13547 whole entry): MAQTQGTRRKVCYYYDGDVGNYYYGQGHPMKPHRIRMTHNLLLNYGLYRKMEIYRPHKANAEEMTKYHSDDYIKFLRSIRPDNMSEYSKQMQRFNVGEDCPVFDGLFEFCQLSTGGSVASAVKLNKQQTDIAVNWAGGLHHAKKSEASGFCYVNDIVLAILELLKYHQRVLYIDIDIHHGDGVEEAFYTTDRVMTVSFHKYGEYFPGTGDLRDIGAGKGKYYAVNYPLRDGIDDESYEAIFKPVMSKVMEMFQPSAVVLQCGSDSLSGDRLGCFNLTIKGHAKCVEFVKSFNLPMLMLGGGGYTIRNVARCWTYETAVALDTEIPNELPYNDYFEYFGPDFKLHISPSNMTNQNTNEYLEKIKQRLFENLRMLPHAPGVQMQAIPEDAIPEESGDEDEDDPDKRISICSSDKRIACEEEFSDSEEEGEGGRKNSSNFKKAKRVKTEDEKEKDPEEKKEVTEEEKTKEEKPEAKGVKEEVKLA
recombinant human HDAC6, sequence (Q9UBN7 whole entry): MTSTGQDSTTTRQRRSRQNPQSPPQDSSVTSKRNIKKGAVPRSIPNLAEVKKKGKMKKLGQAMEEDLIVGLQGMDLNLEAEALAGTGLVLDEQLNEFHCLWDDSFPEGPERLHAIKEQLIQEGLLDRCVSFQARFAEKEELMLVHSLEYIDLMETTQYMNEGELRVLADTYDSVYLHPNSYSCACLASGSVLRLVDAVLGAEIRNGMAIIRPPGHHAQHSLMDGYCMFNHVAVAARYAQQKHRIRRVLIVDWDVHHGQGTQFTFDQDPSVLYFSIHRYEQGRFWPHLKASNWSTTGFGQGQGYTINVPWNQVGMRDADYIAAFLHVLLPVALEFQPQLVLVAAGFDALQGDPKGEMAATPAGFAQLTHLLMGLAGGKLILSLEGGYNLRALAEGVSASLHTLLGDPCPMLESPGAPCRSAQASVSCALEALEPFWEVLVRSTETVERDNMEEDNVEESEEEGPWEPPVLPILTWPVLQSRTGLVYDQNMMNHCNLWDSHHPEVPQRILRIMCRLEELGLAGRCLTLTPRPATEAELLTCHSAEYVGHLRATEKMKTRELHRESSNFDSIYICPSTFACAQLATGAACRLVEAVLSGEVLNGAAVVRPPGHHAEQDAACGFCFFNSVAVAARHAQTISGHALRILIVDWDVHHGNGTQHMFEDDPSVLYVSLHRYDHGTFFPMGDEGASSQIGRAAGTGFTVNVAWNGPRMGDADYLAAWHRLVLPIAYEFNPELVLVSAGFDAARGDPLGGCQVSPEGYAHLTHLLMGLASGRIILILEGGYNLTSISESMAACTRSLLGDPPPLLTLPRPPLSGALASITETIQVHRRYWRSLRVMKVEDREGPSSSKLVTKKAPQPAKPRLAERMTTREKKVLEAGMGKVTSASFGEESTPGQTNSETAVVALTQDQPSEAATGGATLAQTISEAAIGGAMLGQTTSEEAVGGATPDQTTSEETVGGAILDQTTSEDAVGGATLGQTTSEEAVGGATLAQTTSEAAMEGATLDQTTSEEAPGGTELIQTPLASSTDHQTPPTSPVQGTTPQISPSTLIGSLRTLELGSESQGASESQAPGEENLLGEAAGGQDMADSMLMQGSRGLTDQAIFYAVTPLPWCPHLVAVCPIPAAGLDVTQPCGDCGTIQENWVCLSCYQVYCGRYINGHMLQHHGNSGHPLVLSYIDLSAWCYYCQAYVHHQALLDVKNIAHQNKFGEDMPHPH

As to `CN1CCN(c2ccc(-c3nnn(Cc4ccc(-c5nnc(C(F)F)o5)cc4)n3)cn2)CC1` [compound 212, 2-(difluoromethyl)-5-(4-((5-(6-(4-methylpiperazin-1-yl)pyridin-3-yl)-2H-tetrazol-2-yl)methyl)phenyl)-1,3,4-oxadiazole], the IC50 in experiment [1] is 147 nM; in experiment [2] it was more than 200000 nM.
For `NC(=O)c1cccc(-c2cn(Cc3ccc(-c4nnc(C(F)F)o4)cc3)cn2)c1` [compound 223, 3-(1-(4-(5-(difluoromethyl)-1,3,4-oxadiazol-2-yl)benzyl)-1H-imidazol-4-yl)benzamide], in that order: 161 nM and more than 200000 nM.
The matching figures for `FC(F)c1nnc(-c2ccc(Cn3nnc(-c4ccc(N5CCNCC5)nc4)n3)cc2)o1` [compound 148, 2-(difluoromethyl)-5-(4-((5-(6-(piperazin-1-yl)pyridin-3-yl)-2H-tetrazol-2-yl)methyl)phenyl)-1,3,4-oxadiazole]: 63 nM and more than 200000 nM.
The matching figures for `O=C(Nc1cccc(-c2nnn(Cc3ccc(-c4nnc(C(F)F)o4)cc3)n2)c1)c1ccccc1` [compound 156, N-(3-(2-(4-(5-(difluoromethyl)-1,3,4-oxadiazol-2-yl)benzyl)-2H-tetrazol-5-yl)phenyl)benzamide]: 70 nM and more than 200000 nM.
Turning to `FCc1nnc(-c2ccc(Cc3nc(-c4ccc(NC5=NCCN5)cc4)no3)cc2)o1` [compound 380], the values for the IC50 in experiment [1] and in experiment [2] were 19 nM and more than 1e+06 nM, respectively.
For `CN(Cc1ccncc1)Cc1ccc(-c2nnn(Cc3ccc(-c4nnc(C(F)F)o4)cc3)n2)cc1` [compound 215, N-(4-(2-(4-(5-(difluoromethyl)-1,3,4-oxadiazol-2-yl)benzyl)-2H-tetrazol-5-yl)benzyl)-N-methyl-1-(pyridin-4-yl)methanamine], in that order: 151 nM and more than 200000 nM.
`CC(C)(C)OC(=O)N1CCC2(C1)C(=O)Nc1ccc(-c3cn(Cc4ccc(-c5nnc(C(F)F)o5)cn4)nn3)cc12` (single isomer, unassigned) [compound 265, tert-butyl 5-[1-({5-[5-(difluoromethyl)-1,3,4-oxadiazol-2-yl]pyridin-2-yl}methyl)-1H-1,2,3-triazol-4-yl]-2-oxo-1,2-dihydrospiro[indole-3,3′-pyrrolidine]-1′-carboxylate]: the half-maximal inhibitory concentration (IC50) was 26 nM in experiment [1] and more than 200000 nM in experiment [2].
For `Nc1ccc(-c2noc(Cc3ccc(-c4nnc(C(F)F)o4)cc3)n2)cn1` [compound 135, 5-(5-(4-(5-(difluoromethyl)-1,3,4-oxadiazol-2-yl)benzyl)-1,2,4-oxadiazol-3-yl)pyridin-2-amine], in that order: 53 nM and more than 200000 nM.
The matching figures for `Nc1nc2ccc(-c3cnn(Cc4ccc(-c5nnc(C(F)F)o5)cc4)c3)cc2s1` [compound 326, 6-(1-(4-(5-(difluoromethyl)-1,3,4-oxadiazol-2-yl)benzyl)-1H-pyrazol-4-yl)benzo[d]thiazol-2-amine]: 219 nM and more than 1e+06 nM.
The matching figures for `CCNc1cccc(-c2cn(Cc3ccc(-c4nnc(C(F)F)o4)cc3)nn2)c1` [compound 180, 3-(1-(4-(5-(difluoromethyl)-1,3,4-oxadiazol-2-yl)benzyl)-1H-1,2,3-triazol-4-yl)-N-ethylaniline]: 92 nM and more than 200000 nM.
In the case of `CC(C)(c1ccncc1)c1nnn(Cc2ccc(-c3nnc(C(F)F)o3)cc2)n1` [compound 219, 2-(difluoromethyl)-5-(4-((5-(2-(pyridin-4-yl)propan-2-yl)-2H-tetrazol-2-yl)methyl)phenyl)-1,3,4-oxadiazole], the values for the IC50 in experiment [1] and in experiment [2] were 156 nM and more than 200000 nM, respectively.
The matching figures for `O=C1Nc2ccc(-c3cn(Cc4ccc(-c5nnc(C(F)F)o5)cc4)nn3)cc2C12CCNC2` (stereo not drawn) [compound 49, 5-(1-(4-(5-(difluoromethyl)-1,3,4-oxadiazol-2-yl)benzyl)-1H-1,2,3-triazol-4-yl)spiro[indoline-3,3′-pyrrolidin]-2-one]: 21 nM and more than 200000 nM.
Turning to `Nc1cccc(-c2nnn(Cc3ccc(-c4nnc(C(F)F)o4)cc3)n2)c1` [compound 129, 3-[2-[[4-[5-(difluoromethyl)-1,3,4-oxadiazol-2-yl]phenyl]methyl]tetrazol-5-yl]aniline], the 50% inhibitory concentration (IC50) was 50 nM in experiment [1] and more than 200000 nM in experiment [2].
For `FC(F)c1nnc(-c2ccc(Cn3nnc(-c4cccc(-c5cnn6c5CNCC6)c4)n3)cc2)o1` [compound 111, 2-(difluoromethyl)-5-(4-((5-(3-(4,5,6,7-tetrahydropyrazolo[1,5-a]pyrazin-3-yl)phenyl)-2H-tetrazol-2-yl)methyl)phenyl)-1,3,4-oxadiazole], in that order: 42 nM and more than 200000 nM.
On to `CCNc1ncc2cc(-c3cn(Cc4cc(F)c(-c5nnc(C(F)F)o5)cc4F)nn3)ccc2n1` [compound 394, 6-[1-({4-[5-(difluoromethyl)-1,3,4-oxadiazol-2-yl]-2,5-difluorophenyl}methyl)-1H-1,2,3-triazol-4-yl]-N-ethylquinazolin-2-amine], for which the 50% inhibitory concentration (IC50) in experiment [1] amounted to 264 nM; in experiment [2] it was 1e+06 nM.
The matching figures for `FC(F)c1nnc(-c2ccc(Cn3nnnc3-c3ncccn3)cc2)o1` [compound 287, 2-(difluoromethyl)-5-(4-((5-(pyrimidin-2-yl)-1H-tetrazol-1-yl)methyl)phenyl)-1,3,4-oxadiazole]: 446 nM and more than 200000 nM.
Regarding `Cn1c(N)nc2cc(-c3cn(Cc4ccc(-c5nnc(C(F)F)o5)cn4)cn3)ccc21` [compound 328, 5-[1-[[5-[5-(difluoromethyl)-1,3,4-oxadiazol-2-yl]pyridin-2-yl]methyl]imidazol-4-yl]-1-methylbenzimidazol-2-amine], the values for the concentration for half-maximal inhibition (IC50) in experiment [1] and in experiment [2] were 14 nM and more than 1e+06 nM, respectively.
For `CN1CCN(C(=O)Nc2cccc(-c3cn(Cc4ccc(-c5nnc(C(F)F)o5)cc4)nn3)c2)CC1` [compound 146, N-(3-(1-(4-(5-(difluoromethyl)-1,3,4-oxadiazol-2-yl)benzyl)-1H-1,2,3-triazol-4-yl)phenyl)-4-methylpiperazine-1-carboxamide], in that order: 62 nM and more than 200000 nM.
Regarding `CC(C)(C)OC(=O)NCC(=O)Nc1cccc(-c2cn(Cc3c(F)cc(-c4nnc(C(F)F)o4)cc3F)nn2)c1` [Compd. 172, tert-butyl (2-((3-(1-(4-(5-(difluoromethyl)-1,3,4-oxadiazol-2-yl)-2,6-difluorobenzyl)-1H-1,2,3-triazol-4-yl)phenyl)amino)-2-oxoethyl)carbamate], the 50% inhibitory concentration (IC50) was 86 nM in experiment [1] and more than 200000 nM in experiment [2].
The matching figures for `Fc1cc(-c2nnc(C(F)F)o2)ccc1Cn1cnc(-c2ccc(NC3=NCCN3)cc2)c1` [compound 357, N-[4-[1-[[4-[5-(difluoromethyl)-1,3,4-oxadiazol-2-yl]-2-fluorophenyl]methyl]imidazol-4-yl]phenyl]-4,5-dihydro-1H-imidazol-2-amine]: 12 nM and more than 1e+06 nM.
For `Cn1c(Sc2c(F)cc(-c3nnc(C(F)F)o3)cc2F)nnc1-c1ccc(N)nc1` [compound 284, 5-(5-((4-(5-(difluoromethyl)-1,3,4-oxadiazol-2-yl)-2,6-difluorophenyl)thio)-4-methyl-4H-1,2,4-triazol-3-yl)pyridin-2-amine], in that order: 323 nM and more than 200000 nM.
